Reference: ChEMBL document CHEMBL3885881, “DrugMatrix”

Organism: Rattus norvegicus
Test: DrugMatrix - Regimen: Daily Repeat
Assay type: toxicity, organism-based, Sprague-Dawley
Set-up: regimen Daily Repeat, gender Male, age 6-8 weeks
Settings: in vivo, po, route oral GAVAGE, […]; for ABSOLUTE BASOPHIL / ABSOLUTE EOSINOPHIL / ABSOLUTE LYMPHOCYTE / ABSOLUTE MONOCYTE / ABSOLUTE SEGMENTED NEUTROPHIL / BASOPHIL / EOSINOPHIL / ERYTHROCYTE COUNT / HEMATOCRIT / HEMOGLOBIN / LEUKOCYTE COUNT / LYMPHOCYTE / MEAN CORPUSCULAR HEMOGLOBIN / MEAN CORPUSCULAR HEMOGLOBIN CONCENTRATION / MEAN CORPUSCULAR VOLUME / MONOCYTE / NEUTROPHIL / NUCLEATED RED BLOOD CELLS / PLATELET COUNT: tissue Blood; for ALANINE AMINOTRANSFERASE / ALBUMIN / ALKALINE PHOSPHATASE / ASPARTATE AMINOTRANSFERASE / BLOOD UREA NITROGEN / CARBON DIOXIDE / CHLORIDE / CHOLESTEROL / CREATINE PHOSPHOKINASE / CREATININE / GLUCOSE / LACTATE DEHYDROGENASE / LIPASE / PHOSPHORUS / POTASSIUM / SODIUM / TOTAL BILIRUBIN / TOTAL PROTEIN: tissue Plasma
[1] = 0 mg/kg, 72 h, dose level Control, time 3 day
[2] = 0 mg/kg, 120 h, dose level Control, time 5 day
[3] = 40 mg/kg, 72 h, dose level Low, time 3 day

## CN(C)CCCC1(c2ccc(F)cc2)OCc2cc(C#N)ccc21 (stereo not given) [CITALOPRAM]
[1]
  ABSOLUTE BASOPHIL: 0 CELLS/uL
  ABSOLUTE EOSINOPHIL: 41.83 CELLS/uL
  ABSOLUTE LYMPHOCYTE: 8545.5 CELLS/uL
  ABSOLUTE MONOCYTE: 240 CELLS/uL
  ABSOLUTE SEGMENTED NEUTROPHIL: 906 CELLS/uL
  BASOPHIL: 0%
  EOSINOPHIL: 0.33%
  ERYTHROCYTE COUNT: 5.6 x10E6/uL
  HEMATOCRIT: 35.4%
  HEMOGLOBIN: 13.42 G/DL
  LEUKOCYTE COUNT: 9.73 x10E3/uL
  LYMPHOCYTE: 87.83%
  MEAN CORPUSCULAR HEMOGLOBIN: 23.98 pg
  MEAN CORPUSCULAR HEMOGLOBIN CONCENTRATION: 37.92 G/DL
  MEAN CORPUSCULAR VOLUME: 63.3 fL
  MONOCYTE: 2.5%
  NEUTROPHIL: 9.33%
  NUCLEATED RED BLOOD CELLS: 0 /100WBC
  PLATELET COUNT: 1032 x10E3/uL
  ALANINE AMINOTRANSFERASE: 72.83 u/L
  ALBUMIN: 4 G/DL
  ALKALINE PHOSPHATASE: 322.83 u/L
  ASPARTATE AMINOTRANSFERASE: 102.67 u/L
  BLOOD UREA NITROGEN: 12 mg/dL
  CARBON DIOXIDE: 34.33 mmol/L
  CHLORIDE: 97.67 MEQ/L
  CHOLESTEROL: 82.5 mg/dL
  CREATINE PHOSPHOKINASE: 410.33 u/L
  CREATININE: 0.18 mg/dL
  GLUCOSE: 164.5 mg/dL
  LACTATE DEHYDROGENASE: 119.5 u/L
  LIPASE: 11.83 u/L
  PHOSPHORUS: 9.52 mg/dL
  POTASSIUM: 5.56 MEQ/L
  SODIUM: 142.48 MEQ/L
  TOTAL BILIRUBIN: 0.18 mg/dL
  TOTAL PROTEIN: 5.77 G/DL
[2]
  ABSOLUTE BASOPHIL: 0 CELLS/uL
  ABSOLUTE EOSINOPHIL: 0 CELLS/uL
  ABSOLUTE LYMPHOCYTE: 9065 CELLS/uL
  ABSOLUTE MONOCYTE: 341.33 CELLS/uL
  ABSOLUTE SEGMENTED NEUTROPHIL: 527 CELLS/uL
  BASOPHIL: 0%
  EOSINOPHIL: 0%
  ERYTHROCYTE COUNT: 5.25 x10E6/uL
  HEMATOCRIT: 34.08%
  HEMOGLOBIN: 13.5 G/DL
  LEUKOCYTE COUNT: 9.93 x10E3/uL
  LYMPHOCYTE: 91.17%
  MEAN CORPUSCULAR HEMOGLOBIN: 25.7 pg
  MEAN CORPUSCULAR HEMOGLOBIN CONCENTRATION: 39.62 G/DL
  MEAN CORPUSCULAR VOLUME: 64.93 fL
  MONOCYTE: 3.33%
  NEUTROPHIL: 5.5%
  NUCLEATED RED BLOOD CELLS: 0 /100WBC
  PLATELET COUNT: 1077.5 x10E3/uL
  ALANINE AMINOTRANSFERASE: 57.83 u/L
  ALBUMIN: 4.07 G/DL
  ALKALINE PHOSPHATASE: 319.17 u/L
  ASPARTATE AMINOTRANSFERASE: 83.33 u/L
  BLOOD UREA NITROGEN: 13.67 mg/dL
  CARBON DIOXIDE: 30.83 mmol/L
  CHLORIDE: 98.33 MEQ/L
  CHOLESTEROL: 64.83 mg/dL
  CREATINE PHOSPHOKINASE: 263.67 u/L
  CREATININE: 0.2 mg/dL
  GLUCOSE: 182.83 mg/dL
  LACTATE DEHYDROGENASE: 124 u/L
  LIPASE: 10.5 u/L
  PHOSPHORUS: 10 mg/dL
  POTASSIUM: 5.78 MEQ/L
  SODIUM: 142.48 MEQ/L
  TOTAL BILIRUBIN: 0.2 mg/dL
  TOTAL PROTEIN: 6 G/DL
[3]
  ABSOLUTE BASOPHIL: 0 CELLS/uL
  ABSOLUTE EOSINOPHIL: 46.33 CELLS/uL
  ABSOLUTE LYMPHOCYTE: 12847 CELLS/uL
  ABSOLUTE MONOCYTE: 96.67 CELLS/uL
  ABSOLUTE SEGMENTED NEUTROPHIL: 810 CELLS/uL
  BASOPHIL: 0%
  EOSINOPHIL: 0.33%
  ERYTHROCYTE COUNT: 5.4 x10E6/uL
  HEMATOCRIT: 34.8%
  HEMOGLOBIN: 13.67 G/DL
  LEUKOCYTE COUNT: 13.8 x10E3/uL
  LYMPHOCYTE: 93%
  MEAN CORPUSCULAR HEMOGLOBIN: 25.3 pg
  MEAN CORPUSCULAR HEMOGLOBIN CONCENTRATION: 39.27 G/DL
  MEAN CORPUSCULAR VOLUME: 64.37 fL
  MONOCYTE: 0.67%
  NEUTROPHIL: 6%
  NUCLEATED RED BLOOD CELLS: 0 /100WBC
  PLATELET COUNT: 979.33 x10E3/uL
  ALANINE AMINOTRANSFERASE: 61.33 u/L
  ALBUMIN: 3.93 G/DL
  ALKALINE PHOSPHATASE: 390.33 u/L
  ASPARTATE AMINOTRANSFERASE: 85.33 u/L
  BLOOD UREA NITROGEN: 9.33 mg/dL
  CARBON DIOXIDE: 28 mmol/L
  CHLORIDE: 101 MEQ/L
  CHOLESTEROL: 69.67 mg/dL
  CREATINE PHOSPHOKINASE: 135.67 u/L
  CREATININE: 0.31 mg/dL
  GLUCOSE: 158.67 mg/dL
  LACTATE DEHYDROGENASE: 101.67 u/L
  LIPASE: 14.33 u/L
  PHOSPHORUS: 10.5 mg/dL
  POTASSIUM: 6.13 MEQ/L
  SODIUM: 144.7 MEQ/L
  TOTAL BILIRUBIN: 0.17 mg/dL
